Measurements published in PMC3513969 (Evidence-based Complementary and Alternative Medicine : eCAM, 2012).
Values belong to the molecule of their own block, whether it stands above or below them.

How the values were obtained:
[1] = Single dose escalation and multiple dosing pharmacokinetic study of LipoCol Forte; settings: for AUC0–12/dose / AUC0–inf/dose / CL/F / Cmax/dose / Accumulation with multiple dosing / Dose linearity of pharmacokinetic properties (AUC, Cmax) / AUC(0-inf) / Cmax / MRT / Tmax / Vd/F: healthy subjects; for AUC0–12/dose / AUC0–inf/dose / CL/F / Cmax/dose / AUC(0-t) / AUC(0-inf) / Cmax / MRT / half-life / Tmax / Vd/F: fed, mean ± SD, n = 14; for Accumulation with multiple dosing: one LipoCol Forte capsule twice daily for 5 days; for Dose linearity of pharmacokinetic properties (AUC, Cmax): single dose of 1, 2 or 4 LipoCol Forte capsules; for AUC(0-t) / AUC(0-inf) / Cmax / MRT / half-life / Tmax / Vd/F: human, plasma, oral; for AUC(0-t): AUC0–12, healthy subjects; for AUC(0-inf): AUC0–inf; for half-life: T1/2, healthy subjects
Method: A high fat breakfast (including two eggs fried in butter, two strips of bacon, two slices of toast with butter, four ounces of hash brown potatoes, and eight ounces of whole milk) was provided 30 min before dosing. All doses were administered with 240 mL of water. […] A high fat breakfast or dinner was served 30 min before dosing. One capsule was administered with 240 mL of water. […] Within 30 min of collection, the samples were centrifuged at 2,600 g for 10 minutes at 4°C and the plasma transferred to labeled polypropylene tubes containing 50 μL of 17% phosphoric acid and stored at −80°C until analysis.
The pharmacokinetics were characterized, when appropriate, by the peak concentration in the plasma (C max⁡), time to reach the peak concentration (T max⁡), area under the plasma concentration versus time curve from time zero to the time of the last quantifiable concentration (AUC0−t), AUC from time zero to the time extrapolated to infinity (AUC0−inf⁡), half-life (T 1/2), mean residence time (MRT), apparent clearance (CL/F), and apparent volume of distribution (V d/F).

[2] = Pharmacokinetic interaction between gemfibrozil and LipoCol Forte; type: in vivo, human; settings: for Effect of concomitant gemfibrozil on pharmacokinetic parameters (AUC, Cmax): one LipoCol Forte capsule, gemfibrozil 600 mg twice daily; for AUC(0-t): read-out: AUC0–12
Method: The volunteers were fasted overnight before dosing and a high fat breakfast or dinner was served 0.5 h after administration of gemfibrozil. […] Blood samples were prepared as described in the previous section (dose-escalation study).

P-gp = P-gp (Homo sapiens, UniProt P08183); type: cell-based; settings: MDCK-MDR1 cells, 25 μM (extracts adjusted to 25 μM lovastatin)
P-gp, sequence (P08183 whole entry): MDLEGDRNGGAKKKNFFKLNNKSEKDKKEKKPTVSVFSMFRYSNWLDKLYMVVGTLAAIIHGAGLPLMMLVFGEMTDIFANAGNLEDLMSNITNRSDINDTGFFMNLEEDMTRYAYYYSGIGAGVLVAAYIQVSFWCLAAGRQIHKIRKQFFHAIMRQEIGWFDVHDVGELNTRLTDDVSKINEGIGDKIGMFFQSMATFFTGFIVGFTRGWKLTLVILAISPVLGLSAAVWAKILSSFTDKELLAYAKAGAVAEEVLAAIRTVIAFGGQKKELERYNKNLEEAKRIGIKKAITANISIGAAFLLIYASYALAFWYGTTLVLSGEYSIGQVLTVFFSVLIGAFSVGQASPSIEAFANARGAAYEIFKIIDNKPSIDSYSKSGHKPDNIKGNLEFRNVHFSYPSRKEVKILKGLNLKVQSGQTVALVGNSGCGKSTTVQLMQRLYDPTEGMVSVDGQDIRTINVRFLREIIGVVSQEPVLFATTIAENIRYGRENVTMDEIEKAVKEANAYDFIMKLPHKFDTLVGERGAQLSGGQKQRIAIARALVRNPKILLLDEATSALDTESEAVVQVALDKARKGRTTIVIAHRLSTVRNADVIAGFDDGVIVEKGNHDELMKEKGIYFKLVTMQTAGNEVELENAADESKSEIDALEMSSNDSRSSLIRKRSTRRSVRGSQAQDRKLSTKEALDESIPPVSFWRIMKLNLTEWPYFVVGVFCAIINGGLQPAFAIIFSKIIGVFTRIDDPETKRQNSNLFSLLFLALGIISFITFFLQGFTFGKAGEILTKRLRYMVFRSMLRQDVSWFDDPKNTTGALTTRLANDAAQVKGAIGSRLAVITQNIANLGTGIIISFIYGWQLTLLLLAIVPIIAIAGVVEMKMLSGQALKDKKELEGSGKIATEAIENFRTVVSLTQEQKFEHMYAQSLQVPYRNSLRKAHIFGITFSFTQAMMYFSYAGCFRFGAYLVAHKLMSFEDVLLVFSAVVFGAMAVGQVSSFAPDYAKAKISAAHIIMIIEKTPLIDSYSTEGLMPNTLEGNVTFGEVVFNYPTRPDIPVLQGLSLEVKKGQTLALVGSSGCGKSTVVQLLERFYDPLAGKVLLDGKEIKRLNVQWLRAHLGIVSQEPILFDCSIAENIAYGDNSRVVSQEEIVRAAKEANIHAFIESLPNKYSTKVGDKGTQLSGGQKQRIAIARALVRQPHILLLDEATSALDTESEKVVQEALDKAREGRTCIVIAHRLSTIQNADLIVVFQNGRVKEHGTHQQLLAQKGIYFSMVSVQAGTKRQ
Method: MDCK-MDR1 cells (2.5 × 10^4 cells/cm^2) (from The Netherlands Cancer Institute) were cultured in polystyrene Nunclon multidishes under an atmosphere of 5% CO2/95% air. The minimal essential medium (MEM) (Invitrogen, CA, USA) contained 10% fetal bovine serum (Hyclone, UT, USA), 5.5 mM L-glutamine, 1.5 mg/mL of sodium bicarbonate, and 1 mM sodium pyruvate (all from Sigma, MO, USA), and 100 unit/mL of penicillin and 0.1 mg/mL of streptomycin (both from Invitrogen). […] The percentage of inhibition of P-gp activity and the IC50 values for P-gp inhibition were determined by the methods described by Rautio et al..

CYP2B6 = target: T1, CYP2B6 (Homo sapiens, UniProt P20813); test: Inhibition of CYP2B6 activity in human liver microsomes (hydroxybupropion/bupropion ratio); type: biochemical
T1 construct: Human liver microsomes (UltraPool HLM 150) were purchased from BD Biosciences; tissue BD Biosciences UltraPool HLM 150; host or cells: pooled human liver microsomes
T1 sequence (P20813 1-491): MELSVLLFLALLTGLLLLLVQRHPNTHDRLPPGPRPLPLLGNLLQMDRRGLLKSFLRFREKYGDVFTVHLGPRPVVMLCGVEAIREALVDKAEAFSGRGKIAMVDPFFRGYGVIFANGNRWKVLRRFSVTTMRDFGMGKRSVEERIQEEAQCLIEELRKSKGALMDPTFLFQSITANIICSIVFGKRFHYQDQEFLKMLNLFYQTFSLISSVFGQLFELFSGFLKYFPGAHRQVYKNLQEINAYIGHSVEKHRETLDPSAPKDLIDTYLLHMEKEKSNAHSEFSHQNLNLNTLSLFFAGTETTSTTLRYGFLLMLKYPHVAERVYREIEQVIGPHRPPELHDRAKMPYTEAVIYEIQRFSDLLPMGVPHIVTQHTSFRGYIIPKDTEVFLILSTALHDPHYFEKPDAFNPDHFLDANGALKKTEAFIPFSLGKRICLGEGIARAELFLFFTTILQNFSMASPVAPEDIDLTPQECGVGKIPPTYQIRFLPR

CYP2D6 = target: T2, CYP2D6 (Homo sapiens, UniProt P10635); test: Inhibition of CYP2D6 activity in human liver microsomes (dextrorphan/dextromethorphan ratio); type: biochemical
T2 construct: Human liver microsomes (UltraPool HLM 150) were purchased from BD Biosciences; tissue BD Biosciences UltraPool HLM 150; host or cells: pooled human liver microsomes
T2 sequence (P10635 whole entry): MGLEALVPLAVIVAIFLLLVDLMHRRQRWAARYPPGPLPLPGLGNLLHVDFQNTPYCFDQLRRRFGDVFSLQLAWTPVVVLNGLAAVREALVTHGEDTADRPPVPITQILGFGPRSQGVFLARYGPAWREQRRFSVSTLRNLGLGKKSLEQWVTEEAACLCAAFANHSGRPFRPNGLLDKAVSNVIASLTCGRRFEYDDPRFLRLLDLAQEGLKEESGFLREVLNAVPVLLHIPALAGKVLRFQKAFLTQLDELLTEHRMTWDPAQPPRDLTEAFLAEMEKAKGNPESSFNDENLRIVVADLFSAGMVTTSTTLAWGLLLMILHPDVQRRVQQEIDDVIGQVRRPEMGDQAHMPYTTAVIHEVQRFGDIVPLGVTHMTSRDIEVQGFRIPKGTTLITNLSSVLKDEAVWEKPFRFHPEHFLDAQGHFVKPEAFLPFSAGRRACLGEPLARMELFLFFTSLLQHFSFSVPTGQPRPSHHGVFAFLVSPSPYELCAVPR

CYP1A2 = target: T3, CYP1A2 (Homo sapiens, UniProt P05177); test: Inhibition of CYP1A2 activity in human liver microsomes (acetaminophen/phenacetin ratio); type: biochemical; settings: extracts as lovastatin concentration, mean ± SEM, 3-4 preparations
T3 construct: Human liver microsomes (UltraPool HLM 150) were purchased from BD Biosciences; tissue BD Biosciences UltraPool HLM 150; host or cells: pooled human liver microsomes
T3 sequence (P05177 1-516): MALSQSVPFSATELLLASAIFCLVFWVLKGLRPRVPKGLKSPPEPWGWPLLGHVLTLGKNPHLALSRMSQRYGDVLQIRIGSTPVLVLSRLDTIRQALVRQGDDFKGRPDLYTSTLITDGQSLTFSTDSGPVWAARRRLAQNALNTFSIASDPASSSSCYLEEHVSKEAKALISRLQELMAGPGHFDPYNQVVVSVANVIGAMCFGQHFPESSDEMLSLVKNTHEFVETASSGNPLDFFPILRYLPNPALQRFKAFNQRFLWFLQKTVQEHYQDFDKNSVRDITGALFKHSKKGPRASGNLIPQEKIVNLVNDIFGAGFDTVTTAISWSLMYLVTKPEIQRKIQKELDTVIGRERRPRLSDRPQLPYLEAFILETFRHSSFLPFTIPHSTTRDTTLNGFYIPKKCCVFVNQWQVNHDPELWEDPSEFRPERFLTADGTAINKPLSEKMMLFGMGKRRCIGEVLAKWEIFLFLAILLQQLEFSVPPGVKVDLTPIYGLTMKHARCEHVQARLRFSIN

[3] = multiple doses one LipoCol Forte capsule BID for 5 days
[4] = single dose four LipoCol Forte capsules
[5] = single dose one LipoCol Forte capsule
[6] = single dose two LipoCol Forte capsules
[7] = 1 LipoCol Forte capsule, multiple doses one LipoCol Forte capsule BID for 5 days
[8] = 1 LipoCol Forte capsule, single dose one LipoCol Forte capsule
[9] = 2 LipoCol Forte capsules, single dose two LipoCol Forte capsules
[10] = 4 LipoCol Forte capsules, single dose four LipoCol Forte capsules
[11] = healthy subjects, single dose one LipoCol Forte capsule alone, mean ± SD, n = 13
[12] = healthy subjects, single dose one LipoCol Forte capsule with coadministration of 600 mg gemfibrozil twice daily, mean ± SD, n = 13
[13] = human, plasma, oral, 1 LipoCol Forte capsule
[14] = human, plasma, oral, 1 LipoCol Forte capsule, read-out: Tmax

- AUC0–12/dose [1, 3]: 5.69 ± 1.70
- AUC0–inf/dose [1, 3]: 5.92 ± 1.70
- CL/F [1, 3]: 192.3 ± 63.7 L/h
- Cmax/dose [1, 3]: 1.41 ± 0.57
- AUC0–12/dose [1, 4]: 6.94 ± 2.64
- AUC0–inf/dose [1, 4]: 7.42 ± 2.76
- CL/F [1, 4]: 150.2 ± 45.9 L/h
- Cmax/dose [1, 4]: 1.59 ± 0.75
- AUC0–12/dose [1, 5]: 5.75 ± 2.30
- AUC0–inf/dose [1, 5]: 6.72 ± 2.85
- CL/F [1, 5]: 172.9 ± 68.1 L/h
- Cmax/dose [1, 5]: 1.37 ± 0.72
- AUC0–12/dose [1, 6]: 6.94 ± 2.42
- AUC0–inf/dose [1, 6]: 7.50 ± 2.44
- CL/F [1, 6]: 145.7 ± 43.1 L/h
- Cmax/dose [1, 6]: 1.56 ± 0.81
- Accumulation with multiple dosing [1]: no accumulation
- Dose linearity of pharmacokinetic properties (AUC, Cmax) [1]: linear
- AUC(0-t) [1, 7]: 32.4 ± 9.7 ng·h/mL
- AUC(0-t) [1, 8]: 33 ± 13.1 ng·h/mL
- AUC(0-inf) [1, 7]: 33.7 ± 9.7 ng·h/mL
- AUC(0-inf) [1, 8]: 38.3 ± 16.2 ng·h/mL
- Cmax [1, 7]: 8.04 ± 3.24 ng/mL
- Cmax [1, 8]: 7.78 ± 4.12 ng/mL
- MRT [1, 7]: 5.59 ± 1.15 h
- MRT [1, 8]: 7.15 ± 3.3 h
- half-life [1, 7]: 1.92 ± 0.34 h
- half-life [1, 8]: 2.57 ± 1.74 h
- Tmax [1, 7]: 4.36 ± 0.93 h
- Tmax [1, 8]: 5.07 ± 1.59 h
- Vd/F [1, 7]: 544 ± 241 L
- Vd/F [1, 8]: 603 ± 337 L
- AUC(0-t) [1, 9]: 79.1 ± 27.6 ng·h/mL
- AUC(0-inf) [1, 9]: 85.4 ± 27.8 ng·h/mL
- Cmax [1, 9]: 17.8 ± 9.21 ng/mL
- MRT [1, 9]: 6.43 ± 1.77 h
- half-life [1, 9]: 2.07 ± 0.68 h
- Tmax [1, 9]: 5.14 ± 1.7 h
- Vd/F [1, 9]: 438 ± 189 L
- AUC(0-t) [1, 10]: 158 ± 60.2 ng·h/mL
- AUC(0-inf) [1, 10]: 169 ± 62.9 ng·h/mL
- Cmax [1, 10]: 36.2 ± 17.1 ng/mL
- MRT [1, 10]: 6.39 ± 1.43 h
- half-life [1, 10]: 2.04 ± 0.68 h
- Tmax [1, 10]: 5 ± 1.52 h
- Vd/F [1, 10]: 456 ± 265 L
- Effect of concomitant gemfibrozil on pharmacokinetic parameters (AUC, Cmax) ([2]; healthy subjects): significantly increased
- CL/F [2, 11]: 218.4 ± 108.6 L/h
- CL/F [2, 12]: 99.9 ± 48.4 L/h
- AUC(0-inf) [2, 13]: 33.1 ± 18.2 ng·h/mL
- Cmax [2, 13]: 6.79 ± 3.78 ng/mL
- MRT [2, 13]: 6.19 ± 1.38 h
- Vd/F [2, 13]: 644 ± 586 L
- half-life [2, 13]: 1.94 ± 0.75 h
- AUC(0-t) [2, 13]: 31.1 ± 16.5 ng·h/mL
- Tmax [2, 14]: 4.85 ± 1.14 h
SMILES: CC[C@H](C)C(=O)O[C@H]1C[C@@H](C)C=C2C=C[C@H](C)[C@H](CC[C@@H](O)C[C@@H](O)CC(=O)O)[C@H]21 [Lovastatin acid, lovastatin acid]

- Inhibition of P-gp activity (digoxin uptake) (P-gp): highest inhibition
SMILES: C/C=C/C[C@@H](C)C(=O)[C@H]1C(=O)N[C@@H](C(C)C)C(=O)N(C)CC(=O)N(C)[C@@H](CC(C)C)C(=O)N[C@@H](C(C)C)C(=O)N(C)[C@@H](CC(C)C)C(=O)N[C@@H](C)C(=O)N[C@H](C)C(=O)N(C)[C@@H](CC(C)C)C(=O)N(C)[C@@H](CC(C)C)C(=O)N(C)[C@@H](C(C)C)C(=O)N1C [PSC833]

- CL/F [1, 3]: 1339.5 ± 763.3 L/h
- CL/F [1, 4]: 1128.8 ± 624.4 L/h
- CL/F [1, 5]: 941.7 ± 453.5 L/h
- CL/F [1, 6]: 994.5 ± 548.8 L/h
- Accumulation with multiple dosing [1]: no accumulation
- Dose linearity of pharmacokinetic properties (AUC, Cmax) [1]: linear
- AUC(0-t) [1, 7]: 5.22 ± 2.6 ng·h/mL
- AUC(0-t) [1, 8]: 6.74 ± 3.27 ng·h/mL
- AUC(0-inf) [1, 7]: 5.71 ± 2.68 ng·h/mL
- AUC(0-inf) [1, 8]: 7.47 ± 3.44 ng·h/mL
- Cmax [1, 7]: 1.41 ± 0.69 ng/mL
- Cmax [1, 8]: 1.61 ± 0.8 ng/mL
- MRT [1, 7]: 4.81 ± 1.24 h
- MRT [1, 8]: 5.55 ± 1.98 h
- half-life [1, 7]: 1.93 ± 0.43 h
- half-life [1, 8]: 2.36 ± 0.66 h
- Tmax [1, 7]: 3.39 ± 1.38 h
- Tmax [1, 8]: 3.46 ± 1.28 h
- Vd/F [1, 7]: 3570 ± 1800 L
- Vd/F [1, 8]: 3080 ± 1330 L
- AUC(0-t) [1, 9]: 13.4 ± 6.07 ng·h/mL
- AUC(0-inf) [1, 9]: 14.4 ± 6.3 ng·h/mL
- Cmax [1, 9]: 3.36 ± 1.81 ng/mL
- MRT [1, 9]: 5.27 ± 1.42 h
- half-life [1, 9]: 2.36 ± 0.68 h
- Tmax [1, 9]: 3.29 ± 1.35 h
- Vd/F [1, 9]: 3380 ± 2050 L
- AUC(0-t) [1, 10]: 24.9 ± 14.2 ng·h/mL
- AUC(0-inf) [1, 10]: 26.8 ± 15.4 ng·h/mL
- Cmax [1, 10]: 5.7 ± 3.42 ng/mL
- MRT [1, 10]: 5.51 ± 1.11 h
- half-life [1, 10]: 2.42 ± 0.45 h
- Tmax [1, 10]: 3.25 ± 0.78 h
- Vd/F [1, 10]: 3860 ± 1960 L
- IC50 (CYP2B6): 15 ± 1.11 µM
- IC50 at 20 min (CYP2B6; human, human liver microsomes, probe bupropion): 9 to 16 µM
- IC50 (CYP2D6): > 50 µM
- Effect of concomitant gemfibrozil on pharmacokinetic parameters (AUC, Cmax) ([2]; healthy subjects): no significant effects
- CL/F [2, 11]: 1374.0 ± 782.6 L/h
- CL/F [2, 12]: 1372.5 ± 763.8 L/h
- Tmax [2, 12]: 3.00 ± 1.37 h
- AUC(0-inf) [2, 13]: 5.68 ± 3.48 ng·h/mL
- Cmax [2, 13]: 1.53 ± 1.45 ng/mL
- MRT [2, 13]: 4.87 ± 1.28 h
- Vd/F [2, 13]: 4000 ± 2600 L
- half-life [2, 13]: 2.12 ± 0.7 h
- AUC(0-t) [2, 13]: 5 ± 3.29 ng·h/mL
- Tmax [2, 14]: 3.08 ± 1.17 h
- IC50 (CYP1A2): > 100 µM
SMILES: CC[C@H](C)C(=O)O[C@H]1C[C@@H](C)C=C2C=C[C@H](C)[C@H](CC[C@@H]3C[C@@H](O)CC(=O)O3)[C@H]21 [Pure lovastatin, lovastatin, reference compound]
